Paper PMC7397174, “4-Arylthieno[2,3-b]pyridine-2-carboxamides Are a New Class of Antiplasmodial Agents” (Molecules, 2020)
Counter-ions that a name gives are not always drawn.

Experiments:
[1] = target: rPfGSK-3 (Plasmodium falciparum, UniProt O77344); test: KinaseGlo Plus assay for inhibition of PfGSK-3; format: biochemical; details: 10 µM; remaining activity, calculated on DMSO controls; Table 3; read-out: rPfGSK-3 Activity at 10 µM [%]
[2] = tested on: erythrocytic forms of P. falciparum (strain 3D7); test: Viability screening of antiplasmodial activity (SYBR-gold DNA quantification, 96 h); format: cell-based, Plasmodium falciparum; details: for SI (Selectivity index for 3D7 erythrocytic forms versus HEK293 cells): 3D7 versus HEK293 cells; for IC50 / activity at 0.3 µM / activity at 3 µM: Plasmodium falciparum; for IC50: 3D7, strain 3D7, erythrocytic forms; for activity at 0.3 µM / activity at 3 µM: 96 h, strain 3D7, calculated on DMSO controls; for activity at 0.3 µM: read-out: Parasitemia (3D7) at 0.3 µM [%]; for activity at 3 µM: read-out: Parasitemia (3D7) at 3 µM [%]
[3] = in vitro; format: cell-based, human; details: human, HEK293T Viability at 30 µM [%]
Protocol: Cytotoxic effects of test compounds on eukaryotic cells were investigated using a HEK293T cell viability assay. First, the cell density of a HEK293T culture was determined. […] The supernatant was then aspirated and fresh culture medium was added to 200 μL into which the test compounds were previously added. All substances were previously dissolved in DMSO. […] The viability of the cells was then examined by adding PrestoBlue® Cell Viability Agent (Invitrogen, Carlsbad, CA, USA). The supernatant was removed, 10% PrestoBlue® was added in preheated PBS and the culture was incubated for 30 min at 37 °C. In cells with an active metabolism, the PrestoBlue dye is reduced, causing it to fluorescence. The fluorescence (λex = 560 nm, λem = 590 nm) was measured in an EnVision Multilable Plate Reader (Perkin Elmer, Waltham, MA, USA; integration time 0.1 sec/well).

Sequence of rPfGSK-3 (O77344 entry or part of it): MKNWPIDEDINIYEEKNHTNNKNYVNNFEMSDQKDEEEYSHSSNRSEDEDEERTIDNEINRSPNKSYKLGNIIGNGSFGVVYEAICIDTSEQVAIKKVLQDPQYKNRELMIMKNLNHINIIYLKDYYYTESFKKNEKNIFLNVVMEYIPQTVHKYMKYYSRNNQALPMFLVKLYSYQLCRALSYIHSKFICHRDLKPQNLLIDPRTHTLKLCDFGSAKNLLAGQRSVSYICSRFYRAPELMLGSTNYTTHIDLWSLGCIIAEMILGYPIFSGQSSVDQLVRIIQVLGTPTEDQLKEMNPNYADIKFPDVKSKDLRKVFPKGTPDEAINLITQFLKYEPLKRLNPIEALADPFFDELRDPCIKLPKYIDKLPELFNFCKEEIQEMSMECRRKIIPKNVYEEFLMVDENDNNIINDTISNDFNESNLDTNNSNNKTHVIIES

| SMILES | remaining activity at 10 µM [1] [%] | SI (Selectivity index for 3D7 erythrocytic forms versus HEK293 cells) [2] | IC50 [2] [µM] | activity at 0.3 µM [2] [%] | activity at 3 µM [2] [%] | viability at 48 h, 30 µM [3] [%] |
| --- | --- | --- | --- | --- | --- | --- |
| N#Cc1c(N)nc2sc(C(=O)Nc3ccc(Cl)cc3)c(N)c2c1-c1cccc(Cl)c1 [Compound 9a, 3,6-Diamino-4-(3-chlorophenyl)-N-(4-chlorophenyl)-5-cyanothieno[2,3-b]pyridine-2-carboxamide] | 80.3 ± 18.2 | >70 | 0.41 | 23.1 ± 10.8 | 3.7 ± 3.6 | 123 ± 8.4 |
| N#Cc1c(N)nc2sc(C(=O)Nc3ccc(F)cc3)c(N)c2c1-c1ccc(N2CCCC2)cc1Cl [Compound 9aa, 3,6-Diamino-4-[2-chloro-4-(pyrrolidin-1-yl)phenyl]-5-cyano-N-(4-fluorophenyl)thieno[2,3-b]pyridine-2-carboxamide] | 101 ± 3.7 |  |  | 61.8 ± 27.7 | 5.3 ± 2.6 | 74 ± 8.6 |
| CN(C)CCN(C)c1ccc(-c2c(C#N)c(N)nc3sc(C(=O)Nc4ccc(F)cc4)c(N)c23)c(Cl)c1 [Compound 9ab, 3,6-Diamino-4-(2-chloro-4-{[2-(dimethylamino)ethyl](methyl)amino}phenyl)-5-cyano-N-(4-fluorophenyl)thieno[2,3-b]pyridine-2-carboxamide] | 112 ± 13.9 |  |  | 16.7 ± 19.5 | 1.6 ± 11 | -1.4 ± 13.1 |
| CN(CCNC(=O)OC(C)(C)C)c1ccc(-c2c(C#N)c(N)nc3sc(C(=O)Nc4ccc(F)cc4)c(N)c23)c(Cl)c1 [Compound 9ac, tert-Butyl {2-[(3-chloro-4-{3,6-diamino-5-cyano-2-[(4-fluorophenyl)carbamoyl]thieno[2,3-b]pyridin-4-yl}phenyl)(methyl)amino]ethyl}carbamate] | 85.7 ± 8.2 |  |  | 30.1 ± 14.2 | 7.5 ± 5.9 | 55.8 ± 25.1 |
| CN(CCNC(=O)OC(C)(C)C)c1ccc(-c2c(C#N)c(N)nc3sc(C(=O)Nc4ccccc4Cl)c(N)c23)c(Cl)c1 [Compound 9ad, tert-Butyl {2-[(3-chloro-4-{3,6-diamino-2-[(2-chlorophenyl)carbamoyl]-5-cyanothieno[2,3-b]pyridin-4-yl}phenyl)(methyl)amino]ethyl}carbamate] | 95 ± 10.7 |  |  | 57.7 ± 24.1 | 13.3 ± 9.9 | 76.3 ± 24.1 |
| CN(CCN)c1ccc(-c2c(C#N)c(N)nc3sc(C(=O)Nc4cccc(Cl)c4)c(N)c23)c(Cl)c1 [Compound 9ae, 3,6-Diamino-4-{4-[(2-aminoethyl)(methyl)amino]-2-chlorophenyl}-N-(3-chlorophenyl)-5-cyanothieno-[2,3-b]pyridine-2-carboxamide hydrochloride] | 101 ± 20.2 |  |  | 1.7 ± 4.2 | 2.7 ± 7.8 | -8.5 ± 7.4 |
| CN(C)CCN(C)c1ccc(-c2c(C#N)c(N)nc3sc(C(=O)Nc4cccc(Cl)c4)c(N)c23)c(Cl)c1 [Compound 9af, 3,6-Diamino-4-(2-chloro-4-{[2-(dimethylamino)ethyl](methyl)amino}phenyl)-N-(3-chlorophenyl)-5-cyanothieno[2,3-b]pyridine-2-carboxamide] | 107 ± 11.2 |  |  | 5.8 ± 4.7 | 4.5 ± 7.4 | -7.4 ± 6.4 |
| N#Cc1c(N)nc2sc(C(=O)Nc3ccccc3Cl)c(N)c2c1-c1cccc(F)c1 [Compound 9b, 3,6-Diamino-N-(2-chlorophenyl)-5-cyano-4-(3-fluorophenyl)thieno[2,3-b]pyridine-2-carboxamide] | 102 ± 16.5 |  |  | 96 ± 1.9 | 46 ± 19.7 | 101 ± 19.6 |
| N#Cc1c(N)nc2sc(C(=O)Nc3ccccc3Cl)c(N)c2c1-c1cccc(Cl)c1 [Compound 9c, 3,6-Diamino-N-(2-chlorophenyl)-4-(3-chlorophenyl)-5-cyanothieno[2,3-b]pyridine-2-carboxamide] | 99 ± 14.1 |  |  | 69.2 ± 26 | 40 ± 15.9 | 99.3 ± 5.3 |
| N#Cc1c(N)nc2sc(C(=O)Nc3ccc(F)cc3)c(N)c2c1-c1cccc(Cl)c1 [Compound 9d, 3,6-Diamino-4-(3-chlorophenyl)-5-cyano-N-(4-fluorophenyl)thieno[2,3-b]pyridine-2-carboxamide] | 69.7 ± 16.6 |  |  | 88.5 ± 17.6 | 3.5 ± 3.5 | 83 ± 21.6 |
| Cc1cccc(-c2c(C#N)c(N)nc3sc(C(=O)Nc4ccc(Cl)cc4)c(N)c23)c1 [Compound 9e, 3,6-Diamino-N-(4-chlorophenyl)-5-cyano-4-(3-methylphenyl)thieno[2,3-b]pyridine-2-carboxamide] | 106 ± 6.5 | >100 | 0.273 | 9.7 ± 6.8 | 5.6 ± 5.5 | 83.3 ± 20.6 |
| Cc1cccc(-c2c(C#N)c(N)nc3sc(C(=O)Nc4ccccc4Cl)c(N)c23)c1 [Compound 9f, 3,6-Diamino-N-(2-chlorophenyl)-5-cyano-4-(3-methylphenyl)thieno[2,3-b]pyridine-2-carboxamide] | 90.9 ± 14.2 |  |  | 80.2 ± 20.3 | 51.6 ± 15.7 | 93.6 ± 29.9 |
| Cc1cccc(-c2c(C#N)c(N)nc3sc(C(=O)Nc4ccc(F)cc4)c(N)c23)c1 [Compound 9g, 3,6-Diamino-5-cyano-N-(4-fluorophenyl)-4-(3-methylphenyl)thieno[2,3-b]pyridine-2-carboxamide] | 74.8 ± 21.7 |  |  | 63.8 ± 16.5 | 3.1 ± 2.7 | 67.8 ± 8.1 |
| N#Cc1c(N)nc2sc(C(=O)Nc3ccc(Cl)cc3)c(N)c2c1-c1cccc(F)c1 [Compound 9h, 3,6-Diamino-N-(4-chlorophenyl)-5-cyano-4-(3-fluorophenyl)thieno[2,3-b]pyridine-2-carboxamide] | 104 ± 13.3 |  |  | 63.2 ± 19.5 | 3.9 ± 2.9 | 90.7 ± 13.2 |
| N#Cc1c(N)nc2sc(C(=O)Nc3ccc(F)cc3)c(N)c2c1-c1cccc(F)c1 [Compound 9i, 3,6-Diamino-5-cyano-4-(3-fluorophenyl)-N-(4-fluorophenyl)thieno[2,3-b]pyridine-2-carboxamide] | 70.9 ± 19.8 |  |  | 65.8 ± 24.6 | 6.1 ± 4.9 | < 50 |
| CCCCCCCNC(=O)c1sc2nc(N)c(C#N)c(-c3cccc(C)c3)c2c1N [Compound 9k, 3,6-Diamino-5-cyano-N-heptyl-4-(3-methylphenyl)thieno[2,3-b]pyridine-2-carboxamide] | 84.7 ± 10.6 |  |  | 72.7 ± 28.2 | 84 ± 27 | 54.3 ± 19.1 |
| Cc1cccc(-c2c(C#N)c(N)nc3sc(C(=O)NC(C)C)c(N)c23)c1 [Compound 9l, 3,6-Diamino-5-cyano-N-isopropyl-4-(3-methylphenyl)thieno[2,3-b]pyridine-2-carboxamide] | 54.1 ± 15.5 |  |  | 80.6 ± 22 | 79.8 ± 20.3 | 70.6 ± 23 |
| Cc1cccc(-c2c(C#N)c(N)nc3sc(C(=O)NCCC4CC4)c(N)c23)c1 [Compound 9o, 3,6-Diamino-5-cyano-N-(2-cyclopropylethyl)-4-(3-methylphenyl)thieno[2,3-b]pyridine-2-carboxamide] | 60 ± 11.2 |  |  | 62.5 ± 23.5 | 40.8 ± 14.3 |  |
| CC(C)(C)OC(=O)N1CCN(c2ccc(-c3c(C#N)c(N)nc4sc(C(=O)Nc5cccc(Cl)c5)c(N)c34)c(Cl)c2)CC1 [Compound 9p, tert-Butyl 4-(3-chloro-4-{3,6-diamino-2-[(3-chlorophenyl)carbamoyl]-5-cyanothieno[2,3-b]pyridin-4-yl}phenyl)piperazine-1-carboxylate] | 111 ± 12.1 |  |  | 48.3 ± 18 | 5.4 ± 3.2 | 104 ± 14.1 |
| N#Cc1c(N)nc2sc(C(=O)Nc3cccc(Cl)c3)c(N)c2c1-c1ccc(N2CCNCC2)cc1Cl [Compound 9q, 3,6-Diamino-4-[2-chloro-4-(piperazin-1-yl)phenyl]-N-(3-chlorophenyl)-5-cyanothieno[2,3-b]pyridine-2-carboxamide hydrochloride] | 72.6 ± 12.8 |  |  | 6.5 ± 3.1 | 4.9 ± 3 | -13.1 ± 5.4 |
| N#Cc1c(N)nc2sc(C(=O)Nc3cccc(Cl)c3)c(N)c2c1-c1ccc(N2CCOCC2)cc1Cl [Compound 9r, 3,6-Diamino-4-(2-chloro-4-morpholinophenyl)-N-(3-chlorophenyl)-5-cyanothieno[2,3-b]pyridine-2carboxamide] | 108 ± 16.5 |  |  | 45.7 ± 17.2 | 2.8 ± 3.6 | 105 ± 10 |
| Nc1c(C(=O)Nc2ccc(Cl)cc2)sc2nc3c(c(-c4ccccc4)c12)CCCC3 [Compound 17d, 3-Amino-N-(4-chlorophenyl)-4-phenyl-5,6,7,8-tetrahydrothieno[2,3-b]quinoline-2-carboxamide] | 106 ± 10.6 |  |  | 6.2 ± 5.7 | 8.4 ± 17.5 |  |
